Laboratory results reported in BindingDB's records for doi:10.1074/jbc.M607293200 (The Scripps Research Institute, 2007).

Biological target: T1, Phosphoribosylglycinamide formyltransferase (Escherichia coli (strain K12), UniProt P08179)
T1 sequence (P08179 whole entry): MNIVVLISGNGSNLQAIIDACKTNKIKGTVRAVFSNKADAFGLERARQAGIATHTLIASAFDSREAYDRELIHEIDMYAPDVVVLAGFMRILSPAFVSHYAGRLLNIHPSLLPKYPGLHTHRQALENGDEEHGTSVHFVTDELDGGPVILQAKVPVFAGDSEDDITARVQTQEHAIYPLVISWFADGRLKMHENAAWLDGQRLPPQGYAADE
Experiment: GAR Tfase Activity Assay
Settings: pH 7.5; 26 °C

SMILES | Ki [µM]
O=C1NS(=O)(=O)Nc2nc[nH]c21 [1H,3H,4H,7H-2,1,3,5,7-imidazo[4,5-c][1,2,6]thiadiazine-2,2,4-trione] | > 100
Nc1nc2c(c(=O)[nH]1)C[C@@H](CCc1ccc(C(=O)N[C@@H](CCC(=O)O)C(=O)O)cc1)CN2 [5,10-dideazatetrahydrofolic acid] | 0.1
O=C1NS(=O)(=O)Nc2c1ncn2[C@@H]1O[C@H](CO)[C@@H](O)[C@H]1O [7-[(2R,3R,4S,5R)-3,4-dihydroxy-5-(hydroxymethyl)oxolan-2-yl]-1H,3H,4H,7H-2,1,3,5,7-imidazo[4,5-c][1,2,6]thiadiazine-2,2,4-trione] | > 100
O=C1NS(=O)(=O)Nc2c1ncn2[C@@H]1O[C@H](COP(=O)(O)O)[C@@H](O)[C@H]1O [{[(2R,3S,4R,5R)-3,4-dihydroxy-5-(2,2,4-trioxo-1H,3H,4H,7H-2,1,3,5,7-imidazo[4,5-c][1,2,6]thiadiazin-7-yl)oxolan-2-yl]methoxy}phosphonic acid] | > 100
